Results reported in PubChem BioAssay AID328 (DTP/NCI, 2004).
Several values for one entry are separate records, joined by “and”; a condition that tells them apart may be missing. Identical values can stand only once. Toxic doses and inconclusive results are not listed.

Test system: BDF1 mice, P388 leukemia ip, median survival T/C
Experiment: NCI In Vivo Anticancer Drug Screen. Data for tumor model P388 Leukemia (intraperitoneal) in B6D2F1 (BDF1) mice
Details: endpoint: median survival time, higher = longer survival
Method in brief: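 Vehicle-dosed animals serve as the reference; survival of compound-dosed, tumour-implanted mice is divided by it.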

[1] = dose: 50.0 mg/kg/injection, schedule: Q01DX009 (ip), vehicle: saline
[2] = dose: 100.0 mg/kg/injection, schedule: Q04DX003 (ip), vehicle: saline
[3] = dose: 200.0 mg/kg/injection, schedule: Q04DX003 (ip), vehicle: saline
[4] = dose: 100.0 mg/kg/injection, schedule: Q01DX001 (ip), vehicle: saline with Tween-80
[5] = dose: 200.0 mg/kg/injection, schedule: Q01DX001 (ip), vehicle: saline with Tween-80
[6] = dose: 12.5 mg/kg/injection, schedule: Q01DX009 (ip), vehicle: saline
[7] = dose: 25.0 mg/kg/injection, schedule: Q01DX009 (ip), vehicle: saline

For `CC([NH-])C(=O)O.O=C(O)CN(CC(=O)O)CC(=O)O.[Co+2]`, which T/C [1] is on record?
Its T/C is 110 % of control and 113 % of control.

And the T/C (dose: 66.0 mg/kg/injection, schedule: Q01DX009 (ip), vehicle: saline)?
The T/C was 114 % of control.

And the T/C [2]?
The T/C was 87 % of control.

And the T/C (dose: 150.0 mg/kg/injection, schedule: Q01DX009 (ip), vehicle: saline)?
The T/C was 104 % of control.

What about the T/C (dose: 200.0 mg/kg/injection, schedule: Q01DX009 (ip), vehicle: saline) of the same compound?
Its T/C is 104 % of control.

And the T/C [3]?
Its T/C is 104 % of control.

And the T/C (dose: 400.0 mg/kg/injection, schedule: Q04DX003 (ip), vehicle: saline)?
Its T/C is 91 % of control.

Which results are given for `CCCCCC1=NC(C)(C(=O)OC)OO1` (stereo not given)?
T/C (dose: 25.0 mg/kg/injection, schedule: Q01DX009 (ip), vehicle: saline with Tween-80): 114 % of control; T/C (dose: 50.0 mg/kg/injection, schedule: Q01DX009 (ip), vehicle: saline with Tween-80): 112 % of control

`O=S(=O)(/N=C1C=C/C(=N\S(=O)(=O)c2ccccc2)C(Sc2ccccc2)=C\1)c1ccccc1` was tested. Which T/C (dose: 50.0 mg/kg/injection, schedule: Q01DX001 (ip), vehicle: saline with Tween-80) did it give?
The T/C was 104 % of control.

What about the T/C [4] of the same compound?
Its T/C is 90 % of control.

And the T/C [5]?
The T/C was 122 % of control.

How did the T/C (dose: 200.0 mg/kg/injection, schedule: Q04DX003 (ip), vehicle: saline with Tween-80) turn out when `O=c1[nH]c(=O)n(CC(O)c2ccc(Cl)s2)cc1F` (stereo not given) was run?
Its T/C is 103 % of control.

And the T/C (dose: 400.0 mg/kg/injection, schedule: Q04DX003 (ip), vehicle: saline with Tween-80)?
The T/C was 117 % of control.

With `CC(=O)Nc1cc2c3c(c1)CCN3CCC2` as the compound, how does the T/C (dose: 3.13 mg/kg/injection, schedule: Q01DX001 (ip), vehicle: saline with Tween-80) read?
Its T/C is 95 % of control.

What about the T/C (dose: 6.25 mg/kg/injection, schedule: Q01DX001 (ip), vehicle: saline with Tween-80) of the same compound?
The T/C was 95 % of control.

What about the T/C (dose: 12.5 mg/kg/injection, schedule: Q01DX001 (ip), vehicle: saline with Tween-80) of the same compound?
The T/C was 90 % of control.

`CC1=NN(c2ccccc2)C(=O)/C1=C\c1ccc(N(CCC#N)CCC#N)cc1` was tested. Which T/C (dose: 50.0 mg/kg/injection, schedule: Q01DX009 (ip), vehicle: Klucel (hydroxypropylcellulose) (HPC)) did it give?
The T/C was 87 % of control.

And the T/C (dose: 100.0 mg/kg/injection, schedule: Q01DX009 (ip), vehicle: Klucel (hydroxypropylcellulose) (HPC))?
The T/C was 93 % of control.

What about the T/C (dose: 200.0 mg/kg/injection, schedule: Q01DX009 (ip), vehicle: Klucel (hydroxypropylcellulose) (HPC)) of the same compound?
Its T/C is 87 % of control.

And the T/C (dose: 400.0 mg/kg/injection, schedule: Q01DX009 (ip), vehicle: Klucel (hydroxypropylcellulose) (HPC))?
Its T/C is 91 % of control.

How did the T/C (dose: 6.25 mg/kg/injection, schedule: Q01DX009 (ip), vehicle: saline) turn out when `CN(C)CCCNc1ccc(O)c2c1C(=O)c1ccccc1C2=O` was run?
The T/C was 91 % of control.

What about the T/C [6] of the same compound?
Its T/C is 110 % of control and 114 % of control.

And the T/C [7]?
The T/C was 103 % of control and 109 % of control and 112 % of control.

What about the T/C [2] of the same compound?
Its T/C is 96 % of control.

What about the T/C [3] of the same compound?
The T/C was 112 % of control.

What does the source list for `O=C(Nc1ccc(NC(=O)Nc2ccc(C3=NCCCN3)cc2)cc1)Nc1ccc(C2=NCCCN2)cc1`?
T/C (dose: 8.3 mg/kg/injection, schedule: Q04DX003 (ip), vehicle: saline): 122 % of control; T/C (dose: 12.0 mg/kg/injection, schedule: Q04DX003 (ip), vehicle: saline): 122 % of control; T/C (dose: 19.0 mg/kg/injection, schedule: Q04DX003 (ip), vehicle: saline): 165 % of control; T/C (dose: 29.0 mg/kg/injection, schedule: Q04DX003 (ip), vehicle: saline): 175 % of control; T/C (dose: 65.0 mg/kg/injection, schedule: Q04DX003 (ip), vehicle: saline): 154 % of control; T/C (dose: 95.0 mg/kg/injection, schedule: Q04DX003 (ip), vehicle: saline): 163 % of control

For `Cc1ccc(S(=O)(=O)N(CCC(=N)N)C(C)C)cc1`, which T/C [6] is on record?
Its T/C is 95 % of control.

And the T/C [7]?
Its T/C is 90 % of control.

What about the T/C (dose: 25.0 mg/kg/injection, schedule: Q04DX003 (ip), vehicle: saline) of the same compound?
Its T/C is 104 % of control.

And the T/C [1]?
The T/C was 105 % of control.

What about the T/C (dose: 50.0 mg/kg/injection, schedule: Q04DX003 (ip), vehicle: saline) of the same compound?
Its T/C is 100 % of control.

For `COP(=O)(O)/C(C)=N/NS(=O)(=O)c1ccc(C)cc1`, which T/C (dose: 25.0 mg/kg/injection, schedule: Q01DX009 (ip), vehicle: other) is on record?
Its T/C is 100 % of control.

And the T/C (dose: 50.0 mg/kg/injection, schedule: Q01DX009 (ip), vehicle: other)?
Its T/C is 103 % of control.

And the T/C (dose: 100.0 mg/kg/injection, schedule: Q01DX009 (ip), vehicle: other)?
The T/C was 100 % of control.

And the T/C (dose: 200.0 mg/kg/injection, schedule: Q01DX009 (ip), vehicle: other)?
Its T/C is 100 % of control.

What about the T/C (dose: 400.0 mg/kg/injection, schedule: Q01DX009 (ip), vehicle: other) of the same compound?
Its T/C is 102 % of control.

For `CC(C)(C)S(=O)(=O)CC(=O)Nc1ccccc1`, which T/C [4] is on record?
The T/C was 96 % of control.

And the T/C [5]?
Its T/C is 101 % of control.

What about the T/C (dose: 400.0 mg/kg/injection, schedule: Q01DX001 (ip), vehicle: saline with Tween-80) of the same compound?
The T/C was 96 % of control.
